# Results from PMC10739871, “Structural insights into the regulation, ligand recognition, and oligomerization of bacterial STING” (Nature Communications, 2023).
# Where “and” joins values, the source holds several entries; their conditions need not be identical. Equal entries are not always repeated. Where two headings read alike, the source gives them in different places.
# Assays:
# [1] = system: ElTIR-STING; test: NAD+ cleavage activity assay, ElTIR-STING; format: biochemical, Epilithonimonas lactis; details: for ΔRFU after 10 mins (single replicates): 500 μM ε-NAD; for ΔRFU after 10 mins, Average: n = 3
# Method: The NAD^+ cleavage activity of the N-terminal TIR domain of full-length TIR-STING proteins were accessed using the previously described protocol. Briefly, 100 μl reaction mixture containing ligand (cGG or cAA) at the indicated concentration and 500 μM ε-NAD (Product No. N2630, Sigma-Aldrich) in the assay buffer (20 mM HEPES pH 7.5, 100 mM KCl) was pre-incubated at room temperature. Tested TIR-STING protein (0.5–1 μM) was then added to start the reaction. The fluorescence signal was continuously monitored for 1 hour at an emission wavelength of 410 nm with excitation at 300 nm using Synergy H1 microplate reader (BioTek). The changes of relative fluorescence units at different time points were recorded.
# [2] = system: T2 phage infection of E. coli cells overexpressing ElTIR-STING; format: cell-based, E. coli BL21(DE3) / phage T2; details: for OD600: replicates 1-3
# [3] = biological target: ElSTING; test: ITC binding of cAA to ElSTING; parameters: species or system Epilithonimonas lactis; details: ITC (Supplementary Fig. 5)
# Method: ITC experiments were performed at 25 °C using nano-ITC (TA Instruments). Purified RiSTING and ElSTING were exchanged into assay buffer containing 20 mM Tris pH 8.0, 150 mM NaCl. 10 mM stock of cGG (Item No. 17144, Cayman Chemical) and cAA (Item No. 17753, Cayman Chemical) were prepared by dissolving in the same buffer. 20 injections of ligand (0.9-1.2 mM) were sequentially titrated to tested STING protein solution (30-100 μM) with a stirring speed of 300 rpm. Data were fit to “independent” model to derive ΔH, ΔS, and Kd values using NanoAnalyze v3.12.5 (TA Instruments).
# [4] = system: E. coli cells overexpressing ElTIR-STING; test: E. coli toxicity assay (growth curves), ElTIR-STING with or without cAA; format: cell-based, E. coli BL21(DE3); details: for OD600: replicates 1-3
# Method: To access the cytotoxicity of TIR-STING proteins and their variants, E. coli BL21(DE3) cells which produce endogenous cGG were used. The cells carrying expression plasmid pET21 or pET24 with indicated TIR-STING were first inoculated into 3-ml LB medium and incubated at 37 °C with shaking overnight. The overnight culture was then diluted by fresh LB medium to an optical density at 600 nm (O.D.600) of ~0.1-0.2, followed by addition of 0.5 mM IPTG and 30 mM nicotinamide to induce the overexpression of tested proteins. […] To access the anti-phage ability of full-length LrTIR-STING, E. coli BL21(DE3) cells containing empty vector, pET24_LrTIR-STING or pET24_LrTIR-STING lid-to-loop mutant was first cultivated at 37 °C overnight and then diluted with fresh medium to O.D.600 of 0.1-0.2, followed by 0.5 mM IPTG induction and infected with T2 phage at a multiplicity of infection (MOI) of 10 or 0.01. The E. coli BL21(DE3) cells without IPTG induction and T2 phage infection was served as control.
# [5] = system: ElTIR-STING; test: Gel filtration / SEC-MALS of ElTIR-STING with cAA; parameters: species or system Epilithonimonas lactis
# Method: Purified protein samples for SEC-MALS analysis were diluted in buffer containing 50 mM Tris pH 8.0, 200 mM NaCl, 1 mM TCEP to a final concentration of 1 mg/ml. The protein sample was incubated with 0.11 mM cyclic di-nucleotide at 4 °C for 1 hour, followed by centrifugation at 4 °C, 18,000x g for 30 mins to remove precipitated proteins. The final protein sample was analyzed using GE AKTA UPC Purifier FPLC system coupled to a Wyatt Optilab T-rex refractive index detector and a Wyatt miniDAWN TREOS to obtain O.D.280, molar mass and refractive index (dRI).
smiles,measurement,setting,value
"Nc1ncnc2c1ncn2[C@@H]1O[C@@H]2COP(=O)(O)O[C@H]3[C@@H](O)[C@H](n4cnc5c(N)ncnc54)O[C@@H]3COP(=O)(O)O[C@H]2[C@H]1O [cAA, 3′3′-cyclic di-AMP]",ΔRFU after 10 mins (single replicates),[1]; 1 μM cAA,3735 RFU and 3756 RFU and 9276 RFU
same,"ΔRFU after 10 mins, Average",[1]; 1 μM cAA,5589 RFU
same,ΔRFU after 10 mins (single replicates),[1]; 10 μM cAA,3586 RFU and 4211 RFU and 4642 RFU
same,"ΔRFU after 10 mins, Average",[1]; 10 μM cAA,4146 RFU
same,ΔRFU after 10 mins (single replicates),[1]; 100 μM cAA,4282 RFU and 3852 RFU and 4467 RFU
same,"ΔRFU after 10 mins, Average",[1]; 100 μM cAA,4200 RFU
same,activation of NAD+ cleavage activity (in words),"[1]; full-length ElTIR-STING, up to 100 μM cAA",could not activate
same,resistance to phage infection (in words),"[2]; 100 μM cAA in growth medium, T2 phage",did not confer resistance
same,OD600,"[2]; MOI = 0.01, time 30 min",0.015 and 0.017 and 0.016
same,OD600,"[2]; MOI = 0.01, time 45 min",0.021 and 0.024 and 0.023
same,OD600,"[2]; MOI = 0.01, time 60 min",0.030 (2×) and 0.032
same,OD600,"[2]; MOI = 0.01, time 75 min",0.036 (2×) and 0.038
same,OD600,"[2]; MOI = 0.01, time 90 min",0.040 (2×) and 0.043
same,OD600,"[2]; MOI = 0.01, time 105 min",0.042 and 0.045 and 0.041
same,OD600,"[2]; MOI = 0.01, time 120 min",0.046 (2×) and 0.050
same,OD600,"[2]; MOI = 0.01, time 135 min",0.050 and 0.053 and 0.049
same,OD600,"[2]; MOI = 0.01, time 150 min",0.054 and 0.057 and 0.062
same,OD600,"[2]; MOI = 0.01, time 165 min",0.058 and 0.060 and 0.056
same,OD600,"[2]; MOI = 0.01, time 180 min",0.061 and 0.064 and 0.058
same,OD600,"[2]; MOI = 1, time 30 min",0.017 and 0.015 and 0.011
same,OD600,"[2]; MOI = 1, time 45 min",0.019 and 0.018 and 0.012
same,OD600,"[2]; MOI = 1, time 60 min",0.021 and 0.019 and 0.014
same,OD600,"[2]; MOI = 1, time 75 min",0.021 and 0.020 and 0.015
same,OD600,"[2]; MOI = 1, time 90 min",0.023 and 0.021 and 0.016
same,OD600,"[2]; MOI = 1, time 105 min",0.025 and 0.023 and 0.018
same,OD600,"[2]; MOI = 1, time 120 min",0.027 and 0.025 and 0.019
same,OD600,"[2]; MOI = 1, time 135 min",0.028 and 0.025 and 0.020
same,OD600,"[2]; MOI = 1, time 150 min",0.029 and 0.027 and 0.021
same,OD600,"[2]; MOI = 1, time 165 min",0.030 and 0.028 and 0.022
same,OD600,"[2]; MOI = 1, time 180 min",0.030 and 0.029 and 0.022
same,OD600,"[2]; Uninfected, time 30 min",0.025 and 0.017 (2×)
same,OD600,"[2]; Uninfected, time 45 min",0.032 and 0.023 and 0.024
same,OD600,"[2]; Uninfected, time 60 min",0.034 and 0.033 (2×)
same,OD600,"[2]; Uninfected, time 75 min",0.049 and 0.047 and 0.046
same,OD600,"[2]; Uninfected, time 90 min",0.067 and 0.064 and 0.063
same,OD600,"[2]; Uninfected, time 105 min",0.091 and 0.087 (2×)
same,OD600,"[2]; Uninfected, time 120 min",0.121 and 0.117 and 0.116
same,OD600,"[2]; Uninfected, time 135 min",0.160 and 0.155 and 0.152
same,OD600,"[2]; Uninfected, time 150 min",0.208 and 0.200 and 0.197
same,OD600,"[2]; Uninfected, time 165 min",0.262 and 0.252 and 0.247
same,OD600,"[2]; Uninfected, time 180 min",0.327 and 0.313 and 0.308
same,OD600,"[2]; Uninfected, time 195 min",0.398
same,binding affinity (in words),[3],micromolar affinity
same,OD600,"[4]; time 0 min, 300 μM cAA (Fig. 4b legend)",0.028 (2×) and 0.026
same,OD600,"[4]; time 20 min, 300 μM cAA",0.036 and 0.037 and 0.034
same,OD600,"[4]; time 40 min, 300 μM cAA",0.056 (2×) and 0.054
same,OD600,"[4]; time 60 min, 300 μM cAA",0.083 (2×) and 0.079
same,OD600,"[4]; time 80 min, 300 μM cAA",0.125 and 0.124 and 0.119
same,OD600,"[4]; time 100 min, 300 μM cAA",0.186 and 0.183 and 0.175
same,OD600,"[4]; time 120 min, 300 μM cAA",0.252 (2×) and 0.244
same,OD600,"[4]; time 140 min, 300 μM cAA",0.33 and 0.331 and 0.326
same,OD600,"[4]; time 160 min, 300 μM cAA",0.408 (2×) and 0.41
same,OD600,"[4]; time 180 min, 300 μM cAA",0.503 and 0.497 and 0.506
same,OD600,"[4]; time 200 min, 300 μM cAA",0.563 and 0.565 and 0.575
same,OD600,"[4]; time 220 min, 300 μM cAA",0.612 and 0.615 and 0.627
same,OD600,"[4]; time 240 min, 300 μM cAA",0.66 (2×) and 0.677
same,OD600,"[4]; time 260 min, 300 μM cAA",0.7 and 0.704 and 0.715
same,OD600,"[4]; time 280 min, 300 μM cAA",0.73 and 0.732 and 0.743
same,OD600,"[4]; time 300 min, 300 μM cAA",0.765 and 0.764 and 0.784
same,OD600,"[4]; time 320 min, 300 μM cAA",0.798 and 0.804 and 0.81
same,OD600,"[4]; time 340 min, 300 μM cAA",0.822 and 0.831 and 0.839
same,OD600,"[4]; time 360 min, 300 μM cAA",0.854 and 0.863 and 0.865
same,OD600,"[4]; time 380 min, 300 μM cAA",0.875 and 0.886 and 0.885
same,OD600,"[4]; time 400 min, 300 μM cAA",0.892 and 0.904 and 0.902
same,OD600,"[4]; time 420 min, 300 μM cAA",0.901 and 0.917 and 0.912
same,OD600,"[4]; time 440 min, 300 μM cAA",0.911 and 0.927 and 0.92
same,OD600,"[4]; time 460 min, 300 μM cAA",0.919 and 0.935 and 0.929
same,OD600,"[4]; time 480 min, 300 μM cAA",0.926 and 0.943 and 0.935
same,OD600,"[4]; time 500 min, 300 μM cAA",0.933 and 0.952 and 0.942
same,effect on growth of E. coli expressing ElTIR-STING (in words),[4]; with vs without addition of cAA and vs empty vector,no differences
same,molecular weight of cAA-induced ElTIR-STING oligomer,"[5]; SEC-MALS, 0.11 mM cyclic di-nucleotide",3937–7883 kDa
same,oligomeric state induced (in words),"[5]; gel filtration, 2-fold molar excess of cAA, dimeric without ligand",large oligomers
